`Cc1ccccc1C(=O)Oc1cc(O)ccn1` showed a melting point of 116 to 119 °C. For `O=C1c2cccc3cccc(c23)C(=O)N1CCCO`, the melting point was 115 to 118 °C. Work on `O=C(Nc1ccc(C(=O)N2Cc3ccccc3Cc3ccccc32)cc1)c1ccccc1C(F)(F)F` yielded a melting point of 191 to 193 °C. `Cc1noc(NS(=O)(=O)c2ccccc2-c2cc3ccccc3[nH]2)c1C` gave a melting point of 172 to 175 °C. Compound `CCCCCCCCCCCCCCCCC(C)C(=S)OC` (stereo not drawn) has a melting point of 39 to 40 °C. For `Cc1ccc(C#N)cc1Cl`, the melting point was 46.5 to 47.5 °C. Compound `C=C(C)C(=O)OCCCc1ccc(-c2ccc(-c3ccc(OC(=O)C(=C)C)cc3F)c(F)c2)cc1` has a melting point of 67 °C. In the case of `N#CNC(=NCCN1CCC(C(=O)c2ccc(F)cc2)CC1)N1CCCCC1`, the melting point is reported as 139 to 141 °C. `COc1ccc(CN2C(=O)C3CC(c4ccc(N)cc4)(C3)C2=O)cc1` showed a melting point of 147 to 148 °C. Work on `Cc1ncn(Cc2ccc(NC(=O)C(F)(F)F)cc2C(F)(F)F)c1C` yielded a melting point of 238 to 239 °C. Compound `NC1=NC(c2cccc(-c3cccnc3F)c2)(c2ccc3c(c2)OCO3)C2=NCCCN12` (stereo not drawn) has a melting point of 106 to 119 °C. With `CC(=O)OCCOc1ncnc(NS(=O)(=O)c2ccc(C)cc2)c1C=O` the melting point was 130 to 144 °C. With `COC(=O)c1nc(SC)n(-c2ccccc2)c1C(=O)OC` the melting point was 121 to 122 °C. `CC(=O)NC(CCOC(C)=O)(CCOC(C)=O)CCc1ccccc1` gave a melting point of 73 to 74 °C. `COC(=O)CCSC(C)(C)C(NS(=O)(=O)c1ccc(Oc2ccc(F)cc2)cc1)C(=O)O` (stereo not drawn) gave a melting point of 123 to 124 °C. Work on `CCc1nc2c(C)cc(C)nc2n1Cc1ccc(-c2ccccc2)c(-c2nc(=O)o[nH]2)c1` yielded a melting point of 149 to 152 °C. Compound `Cc1nc(NC2CC2)ccc1N1CCCn2c1nc1c(Cl)ccc(C(OC(F)F)C(F)(F)F)c12` (stereo not drawn) has a melting point of 168 to 170 °C. Work on `Cn1nc(NC(=O)c2ccccc2)c2c(=O)n3c(nc21)SCC3` yielded a melting point of 271 to 272 °C. `FCC1(CF)OC1(CBr)c1cc(C(F)(F)F)ccc1Cl` (stereo not drawn) gave a melting point of 54 to 55 °C. `CCCCCCCCCc1cnc(-c2ccc(C(=O)OC)cc2)nc1` gave a melting point of 61.7 °C. For `CCc1ccc(C2C(=O)Oc3c2cc(C(C)(C)C)cc3C(C)(C)C)cc1` (stereo not drawn), the melting point was 127 to 132 °C. `COc1nc(NC(=O)NS(=O)(=O)c2ccccc2OC(F)F)nc(OCC(F)(F)F)n1` showed a melting point of 155 to 157 °C. `CCOc1cc(CCNC(=O)Cn2c(C#N)ccc2-c2ccc3c(c2)C(C)(C)OC(=O)N3)ccc1OC` gave a melting point of 160 to 162 °C. `OCC1CCCc2c1ncn2C(c1ccccc1)(c1ccccc1)c1ccccc1` (stereo not drawn) showed a melting point of 168 to 170 °C. In the case of `CCNC(=O)n1nc(Oc2c(F)cc(C(F)(F)F)cc2Cl)cc1C`, the melting point is reported as 58 to 60 °C. With `CCCCCCCCC=CCCCCCCCC(=O)CCCNC(=O)CCNC(C)=O` the melting point was 123 to 125 °C. `COc1ccc(NC(=O)c2ccc(COc3ccc4c(c3)CCC(CCN3CCCCC3)C4)cc2)cc1` (stereo not drawn) gave a melting point of 193 to 196 °C. For `COc1cccc(OC)c1C(=O)NC(=S)NNC(=O)c1ccc(Cl)cc1`, the melting point was 206 to 208 °C. With `CCOCc1nc2cnc3cccnc3c2n1CC1(O)CCOCC1` the melting point was 168 to 169 °C. For `COc1cc(NC(=O)OC(C)(C)C)cc2c1nc(C(F)F)n2-c1nc(N2CCOCC2)nc(N2CCN(S(=O)(=O)CCN(C)C)CC2)n1`, the melting point was 200 to 202 °C. Compound `CCOC(=O)N1C(=O)NC(C)=C(C(=O)OC)C1c1cccc(Cl)c1Cl` (stereo not drawn) has a melting point of 159 to 160 °C. Work on `CCCc1c(C(=O)C2CC2)c2ccc(C(N)=O)cc2n1Cc1ccccc1Cl` yielded a melting point of 162 to 164 °C. For `COc1cc(C2CCN(CC(N)=O)CC2)ccc1Nc1ncc2ccc(-c3ccccc3OC)n2n1`, the melting point was 88 to 95 °C. In the case of `O=C1CC(c2cccc(-n3ccnc3)c2)=Nc2cc(N3CCC(OCCO)CC3)c(-c3ccc(F)cc3)cc2N1`, the melting point is reported as 225 to 227 °C. With `COc1ccccc1Oc1c(NS(=O)(=O)c2ccc3c(c2)OCO3)nc(-c2ccnc(-c3nnn[nH]3)c2)nc1OCCO` the melting point was 227 to 229 °C. In the case of `CC#Cc1ncn2c1[C@@H]1CCCN1C(=O)c1c(Cl)cccc1-2`, the melting point is reported as 208 to 209 °C. Work on `CCNCCCOc1ccc(-c2ccc(C(=O)O)cc2)cc1-c1ccc2c(c1)C(C)(C)CCC2(C)C` yielded a melting point of 233 °C. With `Cc1cc(-c2cccc(C#N)c2)c(C(=O)NCCN2CCOCC2)c(C)n1` the melting point was 158 to 161 °C. `Cc1c(Br)cc(C(C)(C)C)c(O)c1C(=O)O` showed a melting point of 54 to 58 °C. With `COC(=O)C1=C(C)NC(C)=C(C(=O)OC)C1CCCCC(=O)O` the melting point was 150 to 151 °C. In the case of `CCOC(=O)c1ccccc1N(CC(=O)N(C)c1ccccc1)C(=O)CNC(=O)Nc1cccc(C(C)O)c1` (stereo not drawn), the melting point is reported as 195 °C. With `COc1cc2nc(N3CCN(c4ccnc(N(C)C5CCCC5)n4)CC3)nc(N)c2cc1OC` the melting point was 333 to 334 °C. Compound `CCOC(=O)CN=C(c1ccccc1)c1cc(Cl)ccc1N` has a melting point of 130 to 135 °C. Compound `COc1cc(-n2nc3n(c2=S)CCSC3)c(Cl)cc1Cl` has a melting point of 131 to 135 °C. Compound `CCc1cnc(Nc2ccccn2)s1` has a melting point of 113 °C. With `O=C(NC1CCCc2cc(C(=O)O)ccc21)OCc1ccccc1` (stereo not drawn) the melting point was 203 to 205 °C. For `CC(=CC(=O)NC(C)(C)C)OC(=O)c1cc(S(C)(=O)=O)c(Cl)cc1NCc1ccco1`, the melting point was 140 to 145 °C. With `O=C(CCC1CCCCC1)C1=C(O)CSC1=O` the melting point was 60 to 62 °C. `CCCCS(=O)(=O)OCCN(CCBr)c1c(C(=O)NCCOP(=O)(O)O)cc([N+](=O)[O-])cc1[N+](=O)[O-]` showed a melting point of 123 to 125 °C. Compound `CON=Cc1nn(-c2c(Cl)cc(C(F)(F)F)cc2Cl)c(N)c1SC(F)(F)F` has a melting point of 129 to 132 °C. In the case of `c1ccc(N2CNCC23CCN(C2CCc4ccccc42)CC3)cc1` (racemic), the melting point is reported as > 250 °C. `COc1ccc2nc(-c3cc(F)c(OC)c(F)c3)cc(Br)c2c1` showed a melting point of 170 to 172 °C. Work on `CC(C)(C)C(=O)OCc1cc2c(OCC3CO3)cccc2[nH]1` (stereo not drawn) yielded a melting point of 129 to 131 °C. For `COc1ccc(/C=C/c2nc3c([nH]2)c(=O)n(C)c(=O)n3C)c(C)c1C`, the melting point was > 275 °C. Compound `O=C(C(=O)N1CCC(N2CCCCC2)CC1)c1ccc2n1Cc1ccccc1N(C(=O)c1ccc(C3CCCCC3)cc1)C2` has a melting point of 190 to 195 °C. In the case of `N#Cc1cnc2sc(I)cc2c1Cl`, the melting point is reported as 181 to 182 °C. With `COC(=O)C1(NS(=O)(=O)c2ccc3c(Cl)cnc(Cl)c3c2)CCOCC1` the melting point was 168 to 170 °C. With `Cc1ccccc1OCCC1CCN(c2cc(Cl)nnc2Cl)CC1` the melting point was 106 to 108 °C. For `CCc1noc(C)c1-c1[nH]c2ccccc2c1CC(=O)N(C)C`, the melting point was 176 to 178 °C. Compound `COC(=O)c1c(C)n(-c2cc(N)c(C)cc2C)cc(Cl)c1=O` has a melting point of 215 °C. With `CCOC(=O)COc1cnc(S)nc1O` the melting point was 157 to 160 °C. In the case of `CCOC(=O)C1CCN(c2nc(CCl)c(C)s2)CC1`, the melting point is reported as 76 to 77 °C. `CC(C(O)c1ccccc1)n1nnc2cc3c(cc2c1=O)OC1CCCN1C3=O` (stereo not drawn) showed a melting point of 235 to 238 °C. With `COc1ccc2[nH]c3c(c2c1)CCC(NC(C)=O)C3` (stereo not drawn) the melting point was 191 to 193 °C. With `O=c1[nH]nnn1-c1ccc(OCc2ccc(F)cc2)cc1F` the melting point was 171 to 172 °C. `CN1CCN(CCCCNc2ncc3cc(-c4c(Cl)cccc4Cl)c(=O)n(C)c3n2)CC1` gave a melting point of 130 to 132 °C. `COC(=O)Cc1ccc(OCCNC(=O)C2Cc3ccccc3N2S(=O)(=O)c2ccc(-c3cc(C)ccc3Cl)cc2)cc1` (stereo not drawn) gave a melting point of 50 to 53 °C. `O=c1nc(-c2ccccc2)c2ccsc2n1CC1CC1` gave a melting point of 191 to 192 °C. In the case of `Cc1cc(C(C)(C)C)c(O)c(S(N)(=O)=O)c1`, the melting point is reported as 114 to 116 °C. Compound `CONS(=O)(=O)c1ccccc1S(=O)(=O)NC(=O)Nc1nc(C)cc(C)n1` has a melting point of 218 to 219 °C. `CCCCN=C(c1cc(Cl)ccc1O)c1ccccc1Cl` gave a melting point of 49.6 °C. Work on `CC(CCl)(c1cc(Cl)nnc1Cl)C(Cl)Cl` (stereo not drawn) yielded a melting point of 82 to 85 °C. In the case of `CCOC(=O)c1cc2cc(C)sc2[nH]1`, the melting point is reported as 107 to 109 °C. In the case of `CCOC(=O)c1ccc(NCCc2ccc(Cl)cc2)cc1`, the melting point is reported as 75 to 77 °C. In the case of `COC(=O)CC[C@H](NC(=O)c1ccc(CCn2cnc3nccc-3c2NO)cc1)C(=O)OC`, the melting point is reported as 170 to 172 °C. `CCCN1CC(NS(=O)(=O)N(CC)CC)CC2c3cccc4[nH]cc(c34)CC21` (stereo not drawn) showed a melting point of 160 to 162 °C. In the case of `COc1cc(C)c2cc(C(C)O)ccc2c1C` (stereo not drawn), the melting point is reported as 78 °C. For `Cc1nc(Cl)c2c(c1O)COC2(c1ccccc1)c1ccccc1`, the melting point was 240 °C. Work on `Oc1c(I)cc(-c2c3ccccc3cc3sc4ccccc4c23)cc1I` yielded a melting point of 213 to 214 °C. Compound `Fc1cc(CC2(Cc3ccnc(F)c3)c3cccnc3-c3ncccc32)ccn1` has a melting point of 239 to 241 °C. In the case of `CCN(CC)CC(O)c1c[nH]c2c1ccc1c3ccccc3[nH]c12` (stereo not drawn), the melting point is reported as 148 to 150 °C. In the case of `CC(C)(C)OC(=O)c1nn(-c2ccc(Cl)cc2Cl)c(-c2ccc(Cl)cc2)c1CBr`, the melting point is reported as 139 °C. `CC(c1oc2ccccc2c(=O)c1-c1cccc(F)c1)n1nc(-c2ccco2)c2c(N)ncnc21` (stereo not drawn) gave a melting point of 234 to 236 °C. Work on `Brc1nc(-c2cccnc2)[nH]c1Br` yielded a melting point of 226 to 227 °C. In the case of `Cc1ccc(S(=O)(=O)NCCCCOc2ccc([N+](=O)[O-])cc2)cc1`, the melting point is reported as 87 to 88 °C. In the case of `Cc1nnc(-c2ccc3ncn(C4CCN(S(C)(=O)=O)CC4)c3c2)o1`, the melting point is reported as 233 to 234 °C. Compound `Cc1cc(-c2cnn3c(C(F)(F)F)cc(-c4ccc(F)c(Cl)c4)nc23)ccn1` has a melting point of 292 °C. In the case of `O=[N+]([O-])c1ccc2c(c1)CN1C(=S)SC[C@@H]1C2`, the melting point is reported as 182 °C. `O=C1NC(=O)c2c1c(-c1ccccc1Cl)cc1oc3cc(CCCCO)c(O)cc3c21` gave a melting point of 256 to 259 °C. Work on `COC(=O)c1cnc(OC)c([N+](=O)[O-])c1` yielded a melting point of 118 to 119 °C. Work on `O=C1NC(=O)C(CC#Cc2ccc(Cl)cc2)(S(=O)(=O)c2ccccn2)S1` (stereo not drawn) yielded a melting point of 140 to 141 °C. With `CC(=O)Nc1ccc(S(=O)(=O)N(C)c2ccc(O)cc2)cc1` the melting point was 202 to 203 °C. `CC(c1ccccc1)N1C(=O)NC(=O)C1O` (stereo not drawn) showed a melting point of 139 to 140 °C. `O=C(O)C(=O)N1CCC(Cc2ccc(Cl)cc2)CC1` gave a melting point of 147 to 148 °C. Work on `CCCCCCCCCCCCCCCCCCOc1cc(NC(=O)OCc2ccccc2)cc(OCCCOc2ccccc2)c1` yielded a melting point of 68 to 69 °C. Work on `CCOC(=O)c1nn(-c2ccc(OC(F)(F)F)cc2)c2cccc(F)c2c1=O` yielded a melting point of 178 °C. For `NC(=O)c1cc2c(c(C(=O)O)c1)NCCC2`, the melting point was 268 to 269 °C. `CC(C)Oc1ccc2c(O)c(C(=O)NCCO)nc(Cl)c2c1` showed a melting point of 102 to 104 °C.

Source: a melting point compilation (Tetko et al.; mined from patent text by program, amines drawn as free bases though some values may be those of a salt)
